From paper PMC7758046, “Novel piperazine–chalcone hybrids and related pyrazoline analogues targeting VEGFR-2 kinase; design, synthesis, molecular docking studies, and anticancer evaluation” (Journal of Enzyme Inhibition and Medicinal Chemistry, 2020)

Experiments:
Assay in all cases: NCI-60 single-dose anticancer screen
Assay type in all cases: cell-based, human
A498 (Renal cancer) = settings: 10 µM single dose
Experimental: (§1) Six compounds were selected by the NCI, according to NCI’s DTP selection guidelines, for evaluation of their anticancer activity at a single-dose of 10 µM against 60 human tumours cell lines.
(§2) In vitro cytotoxicity was performed in NCI according to reported method.

[1] = test system: A549/ATCC (Non-small cell lung cancer); settings: 10 µM single dose
Experimental: as §1, §2

ACHN (Renal cancer) = settings: 10 µM single dose
Experimental: as §1, §2

BT-549 (Breast cancer) = settings: 10 µM single dose
Experimental: as §1, §2

CAKI-1 (Renal cancer) = settings: 10 µM single dose
Experimental: as §1, §2

CCRF-CEM (Leukaemia) = settings: 10 µM single dose
Experimental: as §1, §2

COLO 205 (Colon cancer) = settings: 10 µM single dose
Experimental: as §1, §2

DU-145 (Prostate cancer) = settings: 10 µM single dose
Experimental: as §1, §2

[2] = test system: EKVX (Non-small cell lung cancer); settings: 10 µM single dose
Experimental: as §1, §2

HCT-116 (Colon cancer) = settings: for cell growth promotion: 10 µM single dose; for inhibition at 10 µM: Homo sapiens, read-out: cell growth inhibition
Experimental: as §1, §2

HCT-15 (Colon cancer) = settings: 10 µM single dose
Experimental: as §1, §2

HL-60(TB) (Leukaemia) = settings: 10 µM single dose
Experimental: as §1, §2

[3] = test system: HOP-92 (Non-small cell lung cancer); settings: 10 µM single dose; for inhibition at 10 µM: Homo sapiens, read-out: cell growth inhibition
Experimental: as §1, §2

HT29 (Colon cancer) = settings: for cell growth promotion: 10 µM single dose; for inhibition at 10 µM: Homo sapiens, HT-29, 10 µM single dose, read-out: cell growth inhibition
Experimental: as §1, §2

IGROV1 (Ovarian cancer) = settings: 10 µM single dose
Experimental: as §1, §2

K-562 (Leukaemia) = settings: for cell growth promotion: 10 µM single dose; for inhibition at 10 µM: Homo sapiens, K562, 10 µM single dose, read-out: cell growth inhibition
Experimental: as §1, §2

KM12 (Colon cancer) = settings: 10 µM single dose
Experimental: as §1, §2

MALME-3M (Melanoma) = settings: 10 µM single dose
Experimental: as §1, §2

MCF7 (Breast cancer) = settings: 10 µM single dose
Experimental: as §1, §2

[4] = test system: MDA-MB-231/ATCC (Breast cancer); settings: 10 µM single dose
Experimental: as §1, §2

MDA-MB-435 (Melanoma) = settings: 10 µM single dose
Experimental: as §1, §2

[5] = test system: MDA-MB-468 (Breast cancer); settings: 10 µM single dose
Experimental: as §1, §2

[6] = test system: NCI-H226 (Non-small cell lung cancer); settings: 10 µM single dose
Experimental: as §1, §2

[7] = test system: NCI-H322M (Non-small cell lung cancer); settings: 10 µM single dose
Experimental: as §1, §2

[8] = test system: NCI-H460 (Non-small cell lung cancer); settings: 10 µM single dose
Experimental: as §1, §2

[9] = test system: NCI-H522 (Non-small cell lung cancer); settings: 10 µM single dose
Experimental: as §1, §2

OVCAR-3 (Ovarian cancer) = settings: 10 µM single dose
Experimental: as §1, §2

OVCAR-4 (Ovarian cancer) = settings: 10 µM single dose
Experimental: as §1, §2

OVCAR-5 (Ovarian cancer) = settings: 10 µM single dose
Experimental: as §1, §2

PC-3 (Prostate cancer) = settings: 10 µM single dose
Experimental: as §1, §2

RPMI-8226 (Leukaemia) = settings: 10 µM single dose
Experimental: as §1, §2

RXF 393 (Renal cancer) = settings: 10 µM single dose
Experimental: as §1, §2

SF-268 (CNS cancer) = settings: 10 µM single dose
Experimental: as §1, §2

SF-295 (CNS cancer) = settings: 10 µM single dose
Experimental: as §1, §2

SF-539 (CNS cancer) = settings: 10 µM single dose
Experimental: as §1, §2

SK-MEL-2 (Melanoma) = settings: 10 µM single dose
Experimental: as §1, §2

SK-MEL-28 (Melanoma) = settings: 10 µM single dose
Experimental: as §1, §2

SK-MEL-5 (Melanoma) = settings: 10 µM single dose
Experimental: as §1, §2

SK-OV-3 (Ovarian cancer) = settings: 10 µM single dose
Experimental: as §1, §2

SN12C (Renal cancer) = settings: 10 µM single dose
Experimental: as §1, §2

SNB-75 (CNS cancer) = settings: 10 µM single dose
Experimental: as §1, §2

T-47D (Breast cancer) = settings: 10 µM single dose
Experimental: as §1, §2

TK-10 (Renal cancer) = settings: 10 µM single dose
Experimental: as §1, §2

U251 (CNS cancer) = settings: 10 µM single dose
Experimental: as §1, §2

UACC-62 (Melanoma) = settings: 10 µM single dose
Experimental: as §1, §2

UO-31 (Renal cancer) = settings: 10 µM single dose
Experimental: as §1, §2

[10] = Homo sapiens, read-out: cell growth inhibition

## O=C(C=Cc1ccncc1F)c1ccc(N2CCNCC2)cc1 [Vf, 3-(3-Fluoropyridin-4-yl)-1-(4-(piperazin-1-yl)phenyl)prop-2-en-1-one]
A498 (Renal cancer)
  cell growth promotion: 97.22%
[1]
  cell growth promotion: 78.75%
ACHN (Renal cancer)
  cell growth promotion: 113.06%
BT-549 (Breast cancer)
  cell growth promotion: 90.81%
CAKI-1 (Renal cancer)
  cell growth promotion: 86.18%
CCRF-CEM (Leukaemia)
  cell growth promotion: 78.16%
CCRF-CEM (Leukaemia); [10]
  inhibition at 10 µM: 21.8%
COLO 205 (Colon cancer)
  cell growth promotion: 111.89%
DU-145 (Prostate cancer)
  cell growth promotion: 108.14%
[2]
  cell growth promotion: 99.11%
HCT-116 (Colon cancer)
  cell growth promotion: 73.87%
  inhibition at 10 µM: 26.1%
HCT-15 (Colon cancer)
  cell growth promotion: 111.39%
HL-60(TB) (Leukaemia)
  cell growth promotion: 79.28%
HL-60(TB) (Leukaemia); [10]
  inhibition at 10 µM: 20.7%
[3]
  cell growth promotion: 82.34%
  inhibition at 10 µM: 17.7%
HT29 (Colon cancer)
  cell growth promotion: 86.42%
  inhibition at 10 µM: 13.8%
IGROV1 (Ovarian cancer)
  cell growth promotion: 97.17%
K-562 (Leukaemia)
  cell growth promotion: 85.84%
  inhibition at 10 µM: 14.2%
KM12 (Colon cancer)
  cell growth promotion: 105.34%
MALME-3M (Melanoma)
  cell growth promotion: 99.98%
MCF7 (Breast cancer)
  cell growth promotion: 99.38%
MCF7 (Breast cancer); [10]
  inhibition at 10 µM: 0.62%
[4]
  cell growth promotion: 98.76%
MDA-MB-435 (Melanoma)
  cell growth promotion: 102.37%
[5]
  cell growth promotion: 100.32%
[6]
  cell growth promotion: 99.71%
[7]
  cell growth promotion: 96.26%
[8]
  cell growth promotion: 106.01%
[9]
  cell growth promotion: 78.82%
OVCAR-3 (Ovarian cancer)
  cell growth promotion: 106.22%
OVCAR-4 (Ovarian cancer)
  cell growth promotion: 110.55%
OVCAR-5 (Ovarian cancer)
  cell growth promotion: 111.84%
PC-3 (Prostate cancer)
  cell growth promotion: 73.56%
RPMI-8226 (Leukaemia)
  cell growth promotion: 97.33%
RXF 393 (Renal cancer)
  cell growth promotion: 97.78%
SF-268 (CNS cancer)
  cell growth promotion: 100.92%
SF-295 (CNS cancer)
  cell growth promotion: 101.95%
SF-539 (CNS cancer)
  cell growth promotion: 101.29%
SK-MEL-2 (Melanoma)
  cell growth promotion: 91.63%
SK-MEL-28 (Melanoma)
  cell growth promotion: 115.56%
SK-MEL-5 (Melanoma)
  cell growth promotion: 101.11%
SK-OV-3 (Ovarian cancer)
  cell growth promotion: 96.68%
SN12C (Renal cancer)
  cell growth promotion: 99.00%
SNB-75 (CNS cancer)
  cell growth promotion: 89.08%
T-47D (Breast cancer)
  cell growth promotion: 118.12%
TK-10 (Renal cancer)
  cell growth promotion: 95.83%
U251 (CNS cancer)
  cell growth promotion: 95.03%
UACC-62 (Melanoma)
  cell growth promotion: 92.01%
UO-31 (Renal cancer)
  cell growth promotion: 89.78%

## Fc1cnccc1C1CC(c2ccc(N3CCNCC3)cc2)=NN1 (centres unmarked) [VIc, 1-(4-(5-(3-Fluoropyridin-4-yl)-4,5-dihydro-1H-pyrazol-3-yl)phenyl) piperazine]
A498 (Renal cancer)
  cell growth promotion: 97.17%
[1]
  cell growth promotion: 76.20%
ACHN (Renal cancer)
  cell growth promotion: 99.87%
BT-549 (Breast cancer)
  cell growth promotion: 85.33%
CAKI-1 (Renal cancer)
  cell growth promotion: 80.62%
CCRF-CEM (Leukaemia)
  cell growth promotion: 80.81%
COLO 205 (Colon cancer)
  cell growth promotion: 95.69%
DU-145 (Prostate cancer)
  cell growth promotion: 107.16%
[2]
  cell growth promotion: 91.04%
HCT-116 (Colon cancer)
  cell growth promotion: 73.82%
  inhibition at 10 µM: 26.2%
HCT-15 (Colon cancer)
  cell growth promotion: 97.59%
HL-60(TB) (Leukaemia)
  cell growth promotion: 77.32%
[3]
  cell growth promotion: 72.42%
  inhibition at 10 µM: 27.6%
HT29 (Colon cancer)
  cell growth promotion: 60.16%
  inhibition at 10 µM: 39.8%
IGROV1 (Ovarian cancer)
  cell growth promotion: 67.96%
K-562 (Leukaemia)
  cell growth promotion: 77.92%
KM12 (Colon cancer)
  cell growth promotion: 96.23%
MALME-3M (Melanoma)
  cell growth promotion: 93.43%
MCF7 (Breast cancer)
  cell growth promotion: 73.03%
[4]
  cell growth promotion: 84.58%
MDA-MB-435 (Melanoma)
  cell growth promotion: 105.18%
[5]
  cell growth promotion: 114.26%
[6]
  cell growth promotion: 82.88%
[7]
  cell growth promotion: 89.29%
[8]
  cell growth promotion: 94.92%
[9]
  cell growth promotion: 81.93%
OVCAR-3 (Ovarian cancer)
  cell growth promotion: 98.79%
OVCAR-4 (Ovarian cancer)
  cell growth promotion: 108.25%
OVCAR-5 (Ovarian cancer)
  cell growth promotion: 111.45%
PC-3 (Prostate cancer)
  cell growth promotion: 70.34%
RPMI-8226 (Leukaemia)
  cell growth promotion: 92.51%
RXF 393 (Renal cancer)
  cell growth promotion: 104.89%
SF-268 (CNS cancer)
  cell growth promotion: 107.32%
SF-295 (CNS cancer)
  cell growth promotion: 98.00%
SF-539 (CNS cancer)
  cell growth promotion: 104.39%
SK-MEL-2 (Melanoma)
  cell growth promotion: 92.72%
SK-MEL-28 (Melanoma)
  cell growth promotion: 115.80%
SK-MEL-5 (Melanoma)
  cell growth promotion: 85.78%
SK-OV-3 (Ovarian cancer)
  cell growth promotion: 85.00%
SN12C (Renal cancer)
  cell growth promotion: 89.56%
SNB-75 (CNS cancer)
  cell growth promotion: 101.50%
T-47D (Breast cancer)
  cell growth promotion: 82.20%
TK-10 (Renal cancer)
  cell growth promotion: 122.80%
U251 (CNS cancer)
  cell growth promotion: 95.06%
UACC-62 (Melanoma)
  cell growth promotion: 81.93%
UO-31 (Renal cancer)
  cell growth promotion: 77.18%

## COc1cc(C2CC(c3ccc(N4CCNCC4)cc3)=NN2)ccc1F (centres unmarked) [VIb, 1-(4-(5-(4-Fluoro-3-methoxyphenyl)-4,5-dihydro-1H-pyrazol-3-yl)phenyl) piperazine]
A498 (Renal cancer)
  cell growth promotion: 90.59%
[1]
  cell growth promotion: 68.21%
ACHN (Renal cancer)
  cell growth promotion: 101.47%
BT-549 (Breast cancer)
  cell growth promotion: 70.80%
CAKI-1 (Renal cancer)
  cell growth promotion: 86.62%
CCRF-CEM (Leukaemia)
  cell growth promotion: 69.44%
COLO 205 (Colon cancer)
  cell growth promotion: 93.87%
DU-145 (Prostate cancer)
  cell growth promotion: 103.62%
[2]
  cell growth promotion: 95.41%
HCT-116 (Colon cancer)
  cell growth promotion: 61.10%
  inhibition at 10 µM: 38.9%
HCT-15 (Colon cancer)
  cell growth promotion: 85.57%
HL-60(TB) (Leukaemia)
  cell growth promotion: 76.95%
[3]
  cell growth promotion: 57.13%
  inhibition at 10 µM: 42.9%
HT29 (Colon cancer)
  cell growth promotion: 20.27%
  inhibition at 10 µM: 79.7%
IGROV1 (Ovarian cancer)
  cell growth promotion: 82.04%
K-562 (Leukaemia)
  cell growth promotion: 58.92%
  inhibition at 10 µM: 41.1%
KM12 (Colon cancer)
  cell growth promotion: 93.81%
MALME-3M (Melanoma)
  cell growth promotion: 102.13%
MCF7 (Breast cancer)
  cell growth promotion: 68.65%
[4]
  cell growth promotion: 81.98%
MDA-MB-435 (Melanoma)
  cell growth promotion: 101.87%
[5]
  cell growth promotion: 96.57%
[6]
  cell growth promotion: 89.08%
[7]
  cell growth promotion: 89.15%
[8]
  cell growth promotion: 95.16%
[9]
  cell growth promotion: 66.27%
OVCAR-3 (Ovarian cancer)
  cell growth promotion: 91.15%
OVCAR-4 (Ovarian cancer)
  cell growth promotion: 91.49%
OVCAR-5 (Ovarian cancer)
  cell growth promotion: 101.51%
PC-3 (Prostate cancer)
  cell growth promotion: 64.23%
RPMI-8226 (Leukaemia)
  cell growth promotion: 72.01%
RXF 393 (Renal cancer)
  cell growth promotion: 95.32%
SF-268 (CNS cancer)
  cell growth promotion: 93.72%
SF-295 (CNS cancer)
  cell growth promotion: 97.70%
SF-539 (CNS cancer)
  cell growth promotion: 84.21%
SK-MEL-2 (Melanoma)
  cell growth promotion: 87.70%
SK-MEL-28 (Melanoma)
  cell growth promotion: 109.51%
SK-MEL-5 (Melanoma)
  cell growth promotion: 80.94%
SK-OV-3 (Ovarian cancer)
  cell growth promotion: 83.58%
SN12C (Renal cancer)
  cell growth promotion: 83.08%
SNB-75 (CNS cancer)
  cell growth promotion: 88.85%
T-47D (Breast cancer)
  cell growth promotion: 73.62%
TK-10 (Renal cancer)
  cell growth promotion: 113.60%
U251 (CNS cancer)
  cell growth promotion: 78.59%
UACC-62 (Melanoma)
  cell growth promotion: 86.00%
UO-31 (Renal cancer)
  cell growth promotion: 76.56%
